Measured values taken from patent publication US10350334B2, “Catheter locking solution having antimicrobial and anticoagulation properties” (Becton, Dickinson and Company, priority 2009, dated 2019).
Several values for one entry are separate records, joined by “and”; a condition that tells them apart may be missing. Equal entries are not always repeated.

Columns and labels:
[1] = system: Staphylococcus epidermidis; test: Planktonic cell tests; assay type: cell-based; details: heparin solution
Experimental: In the planktonic cell tests, bupivacine was tested against non-adhering coagulase negative S. epidermidis, which is the bacterial species most prominent in the pathogenesis of CR-BSI. The planktonic cell experiments were performed by the following procedures. First, bacterial suspensions were prepared. Particularly, using BD BBL™ Qualiswab™, S. epidermidis was plated on a Tryptic Soy Broth (TSB) Petri Dish and grown overnight at 37° C. Using a sterile loop, a colony of S. epidermidis was picked up from the TSB Petri Dish and placed into a sterile flask containing 25 mL of sterile TSB media. The flask was then placed in a 37° C. shaking incubator and was shaken at 150 RPM overnight. The next day, 15 mL of the prepared bacterial suspension was placed into an autoclaved centrifuge tube and centrifuged at 10,000 RPM for 10 minutes using a Sorval Centrifuge. The bacteria from the bacterial suspension were rinsed in 0.9% saline by discarding the liquid media (after centrifugation step) and by resuspending the microbial pellet in 20 mL of sterile 0.9% saline. The bacteria were centrifuged and rinsed twice more, for a total of three saline rinses. […]
Bulk concentrations of the bupivacaine and/or vancomyacin (as noted in FIG. 1) were prepared in separate beakers and were filter sterilized. […] Samples were also assessed at time 0, in which there was no exposure to antimicrobials. […]

sheep plasma = test: Sheep's Plasma Clotting Assay (USP coagulation test); assay type: biochemical
Experimental: In order to understand what the working concentration range could be for the anesthetics tested, a Sheep's Plasma Clotting Assay was performed. This test is based on the United States Pharmacopeia (USP) standard test for coagulation and is often used to understand heparin potency. […] Sheep plasma was thawed in a water bath set to 37° C. To facilitate thawing, the plasma in the bottle was inverted every 15 minutes. The plasma was thawed after about 45-60 minutes. The thawed sheep plasma was filtered through glass wool or filtered into a clean glass beaker or flask, to remove particulate matter and to activate it. About 70-80 mL of filtered sheep plasma was collected. Next, a set of test tubes were prepared (VWR Disposable 13×100-mm) in a 6×12 rack. Ten test tubes were needed for each test solution including ten test tubes for the heparin standard. […] For each test solution, every (10) test tube received different volumes of 0.9% NaCl. […] Next, the local anesthetics were added, namely, tetracaine at 30 mg/mL, dibucaine at 30 mg/mL, and bupivacaine at 38 mg/mL. Each of the ten test tubes received different volumes of test solutions, starting with 280 μL and increasing in volume by 20 μL until reaching a volume of 460 μL at the tenth tube. The total volume of saline and test solutions in each of the tubes was 800 μL. A standard solution, namely, USP heparin sodium standard, was also prepared in the same way, with the starting concentration of heparin being 5.6 U/mL. Next, 1 mL of sheep plasma for heparin assay (Bio-Supplies, Inc, P-SPR-1500) was pipetted into each tube, and the rack was gently shaken to ensure mixing. Two hundred μL of a 1% CaCl2 solution was placed into each tube. The total volume for each tube is 2 mL. Each tube was capped with a VWR Plug-type cap, and contents of each tube were inverted six times to ensure that the entire inner wall of each tube was wet. Tubes were incubated for 1 hour at room temperature. After the 1 hour time period, the extent of clotting in each tube was determined by gently shaking each individual test tube (tapping the end gently is acceptable) and then tilting the tube to observe a clot both vertically and horizontally. The degree to which each tube developed a clot was recorded using the following criteria (per the USP Standard) for the visual inspection of the tubes: • 0% Clotting=No apparent clot formed. • 25% Clotting=Small observable clot with mostly liquid. Clot is very mobile. • 50% Clotting=Plasma is completely clotted but mobile. • 75% Clotting=Clot is not mobile but liquid is still present. • 100% Clotting=Clot is not mobile and no liquid is present.
Because of the testing protocol, starting concentrations of anesthetics were diluted from the original formulation. Calculations can be made to compare the efficacy of these anesthetics to the standard anticoagulant heparin by calculating the point at which both standard and test samples yield 50% clotting. Using this calculation, the anesthetic concentration can be referenced back to a measure of U/mL of heparin equivalence.

S. epidermidis = test: Minimum Biofilm Inhibitory Concentration (MBIC) test; assay type: cell-based, Staphylococcus epidermidis; details: for MBIC: adhered cells, 24 hours incubation; for MBIC Assuming 2 mL lock volume: amount in 2 mL lock volume
Experimental: (§1) To further evaluate the efficacy of local anesthetics in antimicrobial lock solutions of the present invention, the minimum concentration at which these drugs can inhibit biofilm growth was tested. The local anesthetics identified in Table 4 were tested against three different species of bacteria identified in Table 3 to assess the antimicrobial efficacy against adhered microbes. It is known that adhered microbes, or biofilms, can be more resistant to antimicrobials than planktonic cells.
(§2) Experiments were conducted against adhered microbes as follows: first, a test tube containing 10 mL of sterile TSB was inocubated with BD BBL™ Qualiswab™, with the strain of interest. The tube was placed in an incubator at 37° C. overnight. The next day, a flask containing 25 mL of sterile TSB (or Sabouraud Dextrose Broth (SDB) for fungal species) was inoculated with 1 mL of bacterial suspension. The flask was placed in an incubator at 37° C. and shaken at 150 RPM. The next day a new flask containing 25 mL of TSB (or SDB) media was inoculated with 1 mL from the previous culture. The bacterial or fungal species were allowed to grow to log phase.
(§3) After the microbes entered the log phase, their concentration was checked to ensure that they had reached a minimum of 1×10^8 CFU/mL per a 0.5 MacFarland standard. Microbes were diluted to a concentration of 1×10^5 CFU/mL using a nephelometer and 200 μL of the microbial suspensions were plated on each of the wells of a 96 well plate. The plate was incubated in a standard incubator at 37° C. for 2 hours to allow for microbial cell adhesion. Next, dilutions of the desired concentrations of antimicrobials were prepared. In a separate, blank plate, 1:2 serial dilutions were prepared with the highest concentration of the antimicrobial to the left of the plate, decreasing in concentration towards the right of the plate. For example, 170 μL of the highest concentration of an antimicrobial was dispensed in column 1 (left of plate). Each of the rest of the columns received 170 μL of saline. Column 2 received 170 μL of antimicrobial, making for a 1:2 dilution (or 50% of original concentration). Contents of Column 2 were then transferred to 3, then from 3 to 4, and so forth. Each well was supplemented with 20% media (TSB for S. epidermidis and P. aeruginosa and SDB for C. albicans), thereby ensuring the viability of the cells over the test time period (24 hours). Positive control wells had 20% media in saline. The bacterial plate was removed from the incubator, and bacterial suspension discarded (adhered cells remain on plate). The antimicrobial formulations identified in Table 4 were then added to the bacterial plate and incubated in a standard incubator at 37° C. for 24 hours. After this time period, solutions in the plate were discarded and plates were rinsed with 200 μL of saline. The cells were then fixed with 200 μL of 95% ethanol for 30 minutes, and allowed to air dry for 10 minutes. Next, the cells were stained for 20 minutes with 250 μL of a filtered solution of 2% crystal violet dye. The plates were then rinsed three times with water, and the 2% crystal violet dye was solubilized with 300 μL of 95% ethanol. The plates were allowed to stand for 10 minutes to complete solubilization and then the plates were read on a spectrophotometer at 570 nm absorbance, wherein high absorbance readings of >0.600 indicated microbial growth. Columns in the plate that had no growth were recorded as the […] (MBIC). FIG. 2 illustrates the MBIC corresponding to the specific local anesthetics.

P. aeruginosa = test: as above; assay type: cell-based, Pseudomonas aeruginosa; details: for MBIC: adhered cells, 24 hours incubation; for MBIC Assuming 2 mL lock volume: amount in 2 mL lock volume
Experimental: as §1, §2, §3

C. albicans = test: as above; assay type: cell-based, Candida albicans; details: for MBIC: adhered cells, 24 hours incubation; for MBIC Assuming 2 mL lock volume: amount in 2 mL lock volume
Experimental: as §1, §2, §3

Candida albicans biofilm = test: Catheter biofilm eradication (catheter segment test) on silicone tubing; assay type: cell-based; details: 38 mg/mL, 1 hour, silicone catheter segments
Experimental: (§4) To understand the antimicrobial effects of the local anesthetics used in the lock solution of the present invention in a clinical setting, a biofilm was grown on silicone catheter-like tubing and treated with various concentrations of local anesthetics. First, a sterile silicone catheter-like tube containing 10 mL TSB media was inoculated with a BD BBL™ Qualiswab™, and placed in an incubator at 37° C. overnight. The next day, a sterile flask containing 25 mL TSB (for bacterial species) or 25 mL SDB (for fungal species) was inoculated with the cultured cells. The morning of the experiment, a new flask containing 25 mL of media was inoculated with the new overnight suspension. These steps were taken to ensure that cells were in the log phase, which for S. epidermidis was ˜3-4 hours, and for C. albicans was around ˜18 hrs. […] Microbial concentrations were adjusted to 1×10^5 CFU/mL by dilution with appropriate media. Silicone catheter-like tubing was terminally sterilized by autoclaving the tube for 45 minutes at 121° C. The sterilized catheter-like tubing was inoculated with 1×10^5 CFU/mL for 2 hours under continuous flow. Continuous flow was created by using a peristaltic pump, in which bacterial suspension was flowed through the catheter segments into a waste reservoir. After the 2 hour time period, the same set up was used to pump TSB media through the tubing for an additional 24 hours to allow biofilm to form on the walls of the catheter lumen. After 24 hours, sterilized saline was pumped through the lumen for 30 minutes to rinse the catheters. Catheters were then cut into 1 inch segments using sterile techniques. Catheter segments were dropped into sterile tubes containing 4 mL of antimicrobials, and incubated in a 37° C. incubator shaker for 1 hour. Segments were removed from treatment tubes and placed into new tubes filled with 6 mL of sterile saline. Each segment was swabbed with a sterile swab and both the tube and the swab were sonicated (Ultrasonic cleaner VWR Model 250T) for 3 minutes. Tubes and swabs were then vortexed (Fisher Scientific Vortex Mixer #02-215-365) for 30 seconds each. One hundred microliters of suspension was plated onto TSB agar plates (SDB for fungal species). The remaining 5.9 mL of suspension was passed through 0.4 μm filters and filters were placed on TSB plates. This step was taken to ensure that all possible bacteria were being recovered. All TSB plates were then incubated at 37° C. in a static incubator for 24-48 hours, at which time colony forming units were counted.

[2] = system: Staphylococcus epidermidis biofilm; test: as above; assay type: cell-based; details: 1 hour, silicone catheter segments
Experimental: as §4

[3] = Internal testing of anticoagulant equivalence to heparin; details: per internal testing

In the case of heparin, the “antimicrobial effect against planktonic Staphylococcus epidermidis” value [1] is reported as “virtually no antimicrobial effect” and the “volume at 50% coagulation” value (sheep plasma; Rep 1) is reported as 370 µL.
For `CCCCOc1cc(C(=O)NCCN(CC)CC)c2ccccc2n1.Cl` [Dibucaine, Dibucaine HCl], the MBIC (S. epidermidis) was 0.59 mg/mL, the “MBIC Assuming 2 mL lock volume” value (S. epidermidis) was 1.18 mg and the MBIC (P. aeruginosa; HCl) was 4.794 mg/mL and 4.75 mg/mL. For the same compound, the “MBIC Assuming 2 mL lock volume” value (P. aeruginosa) was 9.5 mg, the MBIC (C. albicans) was 0.59 mg/mL and the “MBIC Assuming 2 mL lock volume” value (C. albicans) was 1.18 mg. The “eradication of established biofilm” value (Candida albicans biofilm) was “completely eradicated”, the “Log reduction of established biofilm” value ([2]; 38 mg/mL) was ~0.5 Log and the “Equivalence to Heparin” value (sheep plasma; calculated from volumes giving 50% clotting versus heparin standard, per replicate) was 6.23 U/mL. The 50% clotting range (sheep plasma; final concentration in tube, 1 hour at room temperature, per replicate) was 5.1 to 5.4 mg/mL.
With `O=C([O-])CC(O)(CC(=O)[O-])C(=O)[O-].[Na+].[Na+].[Na+]` [sodium citrate] the “anticoagulant equivalence to heparin” value [3] was “about 20 units/mL of heparin”.
For `Cc1cccc(C)c1NC(=O)C1CCCCN1C.Cl` (stereo not drawn) [Mepivacaine, Mepivacaine HCl], the MBIC (S. epidermidis) was 28.2 mg/mL, the “MBIC Assuming 2 mL lock volume” value (S. epidermidis) was 56.4 mg and the MBIC (P. aeruginosa) was 28.2 mg/mL. For the same compound, the “MBIC Assuming 2 mL lock volume” value (P. aeruginosa) was 56.4 mg, the MBIC (C. albicans) was “No inhibition” and the “MBIC Assuming 2 mL lock volume” value (C. albicans) was “No inhibition”. For the same compound, the “Log reduction of established biofilm” value ([2]; 28 mg/mL) was 1.6 Log.
With `CCCNC(C)C(=O)Nc1ccccc1C.Cl` (stereo not drawn) [Prilocaine, Prilocaine HCl] the “antimicrobial effect on established biofilm” value [2] was “minimal antimicrobial effect”.
